Test results from patent US4303664A, “Novel penicillin derivatives containing a coumarin nucleus and medicines containing the same” (Teijin Limited, priority 1978, dated 1981).
Values after ≈ are worked out from the molar mass of the structure shown. Read-outs that look alike come from different tables or passages of the source.

How the values were obtained:
Format in all cases: cell-based
[1] = tested on: Pseudomonas aeruginosa 130; test: Bactericidal test (MIC), Pseudomonas aeruginosa 130; conditions: (16) Pseudomonas aeruginosa 130
Excerpt: (§1) Results of bactericidal tests (MIC, r/ml) on the penicillin derivatives of this invention prepared in the above examples are shown in the following table.

[2] = tested on: Pseudomonas aeruginosa GN-315; test: Bactericidal test (MIC), Pseudomonas aeruginosa GN-315; conditions: GN315; (15) Pseudomonas aeruginosa GN-315
Excerpt: as §1

[3] = tested on: Staphylococcus aureus 1248; test: Bactericidal test (MIC), Staphylococcus aureus 1248
Excerpt: as §1

[4] = tested on: Enterobacter cloacae IF012937; test: Bactericidal test (MIC), Enterobacter cloacae IF012937; conditions: (8) Enterobacter cloacae IF012937
Excerpt: as §1

[5] = tested on: Staphylococcus aureus 209-p; test: Bactericidal test (MIC), Staphylococcus aureus 209-p; conditions: (1) Staphylococcus aureus 209-p
Excerpt: as §1

Serratia G-18 = test: Bactericidal test (MIC), Serratia G-18; conditions: G18
Excerpt: as §1

[6] = tested on: Escherichia Coli NIHJ JC-2; test: Bactericidal test (MIC), Escherichia Coli NIHJ JC-2; conditions: NIHJJC2; (5) Escherichia Coli NIHJ JC-2
Excerpt: as §1

[7] = tested on: Pseudomonas aeruginosa Tid-53; test: Bactericidal test (MIC), Pseudomonas aeruginosa Tid-53; conditions: TID53; (14) Pseudomonas aeruginosa Tid-53
Excerpt: as §1

Rettgerella var. Tid-21 = test: Bactericidal test (MIC), Rettgerella var. Tid-21
Excerpt: as §1

Enterobactor cloacae 147 = test: Bactericidal test (MIC), Enterobactor cloacae 147; conditions: (7) Enterobactor cloacae 147
Excerpt: as §1

[8] = tested on: Pseudomonas aeruginosa 0-37; test: Bactericidal test (MIC), Pseudomonas aeruginosa 0-37; conditions: 037; (13) Pseudomonas aeruginosa 0-37
Excerpt: as §1

Morganella var. G-2 = test: Bactericidal test (MIC), Morganella var. G-2; conditions: VAR.G2
Excerpt: as §1

[9] = tested on: Pseudomonas aeruginosa IFO-3080; test: Bactericidal test (MIC), Pseudomonas aeruginosa IFO-3080; conditions: IFO3080
Excerpt: as §1

[10] = tested on: Klebsiella neumoniae ATCC10031; test: Bactericidal test (MIC), Klebsiella neumoniae ATCC10031
Excerpt: as §1

[11] = tested on: Salmonella typhimurium G-20; test: Bactericidal test (MIC), Salmonella typhimurium G-20; conditions: Salmonella enterica; (4) Salmonella typhimurium G-20
Excerpt: as §1

Bacillus subtilis = test: Bactericidal test (MIC), Bacillus subtilis; conditions: (3) Bacillus subtilis
Excerpt: as §1

[12] = (2) Staphylococcus aureus 1248, read-out: MIC
[13] = (11) Serratia G-18, read-out: MIC
[14] = (10) Rettgerella var. Tid-21, read-out: MIC
[15] = (9) Morganella var. G-2, read-out: MIC
[16] = (12) Pseudomonas aeruginosa IFO-3080, read-out: MIC
[17] = (6) Klebsiella neumoniae ATCC10031, read-out: MIC

Row | SMILES | MIC [1] | MIC [2] | MIC [3, 12] | MIC [4] | MIC [5] | MIC (Serratia G-18; [13]) | MIC [6] | MIC [7] | MIC (Rettgerella var. Tid-21; [14]) | MIC (Enterobactor cloacae 147) | MIC [8] | MIC (Morganella var. G-2; [15]) | MIC [9, 16] | MIC [10, 17] | MIC [11] | MIC (Bacillus subtilis) | further results
1 | COc1cc(OC)c2cc(C(=O)N[C@@H](C(=O)N[C@@H]3C(=O)N4[C@@H]3SC(C)(C)[C@@H]4C(=O)O)c3ccccc3)c(=O)oc2c1 [Example 22, D-α-(5,7-Dimethoxycoumarin-3-carbonamido)benzylpenicillin] | 3.13 µg/mL (≈ 5.38 µM) | 6.25 µg/mL (≈ 10.7 µM) | 3.13 µg/mL (≈ 5.38 µM) | 50 µg/mL (≈ 86 µM) | < 0.4 µg/mL | 100 µg/mL (≈ 172 µM) | < 0.4 µg/mL | 6.25 µg/mL (≈ 10.7 µM) | 25 µg/mL (≈ 43 µM) | 12.5 µg/mL (≈ 21.5 µM) | 50 µg/mL (≈ 86 µM) | 50 µg/mL (≈ 86 µM) | 1.56 µg/mL (≈ 2.68 µM) | 1.56 µg/mL (≈ 2.68 µM) |  |  | 
2 | COC(=O)c1cccc2cc(C(=O)N[C@@H](C(=O)N[C@@H]3C(=O)N4[C@@H]3SC(C)(C)[C@@H]4C(=O)O)c3ccccc3)c(=O)oc12 [Example 14, D(-)-α-(8-Methoxycarbonylcoumarin-3-carbonamido)benzylpenicillin] | 3.13 µg/mL (≈ 5.4 µM) | 12.5 µg/mL (≈ 21.6 µM) | 3.13 µg/mL (≈ 5.4 µM) | 6.25 µg/mL (≈ 10.8 µM) | < 0.4 µg/mL | 12.5 µg/mL (≈ 21.6 µM) | < 0.4 µg/mL | 25 µg/mL (≈ 43.1 µM) | 12.5 µg/mL (≈ 21.6 µM) | 25 µg/mL (≈ 43.1 µM) | 100 µg/mL (≈ 173 µM) | 1.56 µg/mL (≈ 2.69 µM) | 3.13 µg/mL (≈ 5.4 µM) | 1.56 µg/mL (≈ 2.69 µM) | < 0.4 µg/mL | < 0.4 µg/mL | 
3 | CC1(C)S[C@@H]2[C@H](NC(=O)C(C(=O)O)c3ccccc3)C(=O)N2[C@H]1C(=O)O (stereo partly drawn) [Carbenicillin, carbenicillin, reference compound] | 25 µg/mL (≈ 66.1 µM) | 100 µg/mL (≈ 264 µM) |  |  | < 0.8 µg/mL |  | < 0.8 µg/mL | 200 µg/mL (≈ 529 µM) | 25 µg/mL (≈ 66.1 µM) | 200 µg/mL (≈ 529 µM) | > 400 µg/mL | 1.56 µg/mL (≈ 4.12 µM) |  | 50 µg/mL (≈ 132 µM) | < 0.8 µg/mL | < 0.8 µg/mL | MIC ([3]; Staphylococcus aureus, 1248): 3.13 µg/mL (≈ 8.27 µM); MIC (Serratia G-18; Serratia): 6.25 µg/mL (≈ 16.5 µM); MIC ([9]; Pseudomonas aeruginosa): 12.5 µg/mL (≈ 33 µM)
4 | CC1(C)S[C@@H]2[C@H](NC(=O)[C@H](N)c3ccccc3)C(=O)N2[C@H]1C(=O)O [Ampicillin, ampicillin, reference compound] | > 400 µg/mL | > 400 µg/mL | < 0.8 µg/mL |  | < 0.8 µg/mL | 25 µg/mL (≈ 71.5 µM) | < 0.8 µg/mL | > 400 µg/mL |  | 400 µg/mL (≈ 1140 µM) | > 400 µg/mL |  | 200 µg/mL (≈ 572 µM) |  | < 0.8 µg/mL | < 0.8 µg/mL | MIC (Rettgerella var. Tid-21): 6.25 µg/mL (≈ 17.9 µM); MIC (Morganella var. G-2; Morganella): 12.5 µg/mL (≈ 35.8 µM); MIC ([10]; Klebsiella, ATCC10031): 12.5 µg/mL (≈ 35.8 µM)
5 | CC(=O)Oc1ccc2cc(C(=O)N[C@@H](C(=O)N[C@@H]3C(=O)N4[C@@H]3SC(C)(C)[C@@H]4C(=O)O)c3ccccc3)c(=O)oc2c1 [Example 12, D(-)-α-(7-Acetoxycoumarin-3-carbonamido)benzylpenicillin] | 1.56 µg/mL (≈ 2.69 µM) | 6.25 µg/mL (≈ 10.8 µM) | 3.13 µg/mL (≈ 5.4 µM) | 100 µg/mL (≈ 173 µM) | < 0.4 µg/mL | 100 µg/mL (≈ 173 µM) | < 0.4 µg/mL | 6.25 µg/mL (≈ 10.8 µM) | 12.5 µg/mL (≈ 21.6 µM) | 12.5 µg/mL (≈ 21.6 µM) | 50 µg/mL (≈ 86.3 µM) | 25 µg/mL (≈ 43.1 µM) | 1.56 µg/mL (≈ 2.69 µM) | 12.5 µg/mL (≈ 21.6 µM) | < 0.4 µg/mL | < 0.4 µg/mL | 
6 | CC1(C)S[C@@H]2[C@H](NC(=O)[C@H](NC(=O)c3cc4ccc(O)cc4oc3=O)c3ccccc3)C(=O)N2[C@H]1C(=O)O [Example 11, D(-)-α-(7-Hydroxycoumarin-3-carbonamido)benzylpenicillin] | 6.25 µg/mL (≈ 11.6 µM) | 12.5 µg/mL (≈ 23.3 µM) | 6.25 µg/mL (≈ 11.6 µM) | 12.5 µg/mL (≈ 23.3 µM) | < 0.4 µg/mL | 200 µg/mL (≈ 372 µM) | < 0.4 µg/mL | 25 µg/mL (≈ 46.5 µM) | 25 µg/mL (≈ 46.5 µM) | 12.5 µg/mL (≈ 23.3 µM) | 100 µg/mL (≈ 186 µM) | 50 µg/mL (≈ 93 µM) | 3.13 µg/mL (≈ 5.82 µM) | 12.5 µg/mL (≈ 23.3 µM) | < 0.4 µg/mL | < 0.4 µg/mL | 
7 | Cc1cccc2cc(C(=O)N[C@@H](C(=O)N[C@@H]3C(=O)N4[C@@H]3SC(C)(C)[C@@H]4C(=O)O)c3ccccc3)c(=O)oc12 [Example 15, D(-)-α-(8-Methylcoumarin-3-carbonamido)benzylpenicillin] | 25 µg/mL (≈ 46.7 µM) | 200 µg/mL (≈ 373 µM) | 6.25 µg/mL (≈ 11.7 µM) | 100 µg/mL (≈ 187 µM) | < 0.4 µg/mL | 200 µg/mL (≈ 373 µM) | < 0.4 µg/mL | 100 µg/mL (≈ 187 µM) | 50 µg/mL (≈ 93.4 µM) | 200 µg/mL (≈ 373 µM) | 200 µg/mL (≈ 373 µM) | 100 µg/mL (≈ 187 µM) | 12.5 µg/mL (≈ 23.3 µM) | 6.25 µg/mL (≈ 11.7 µM) | < 0.4 µg/mL | < 0.4 µg/mL | 
